Results taken from patent US20250161294A1, “COMPOSITIONS AND METHODS FOR TREATMENT OF OCULAR DISORDERS” (Bausch + Lomb Ireland Limited, priority 2023, published 2025).

Legend:
[1] = tested on: viable bacteria; yeasts and molds; assay: Antimicrobial effectiveness acceptance criteria, Ph. Eur. 5.1.3 (overall); type: cell-based; details: bacteria: >=2 log reduction at 6 hours, >=3 log at 24 hours, no recovery at 28 days; yeasts and molds: >=2 log at 7 days, no increase at 28 days; no extrinsic preservative
Protocol: (§1) The antimicrobial properties of F6H8 were evaluated according to the Ph. Eur. 5.1.3 method.

E. coli = assay: Antimicrobial properties of F6H8, Ph. Eur. 5.1.3 method; type: cell-based; details: for Count: inoculum 2 × 10^5
Protocol: as §1

C. albicans = assay: as above; type: cell-based; details: for Count: inoculum 9 × 10^5
Protocol: as §1

P. aeruginosa = assay: as above; type: cell-based; details: for Count: inoculum 8 × 10^5
Protocol: as §1

A. brasiliensis = assay: as above; type: cell-based; details: for Count: inoculum 7 × 10^5
Protocol: as §1

S. aureus = assay: as above; type: cell-based; details: for Count: inoculum 2 × 10^5
[2] = Solubility of lifitegrast free acid in F6H8; type: physicochemical; details: lifitegrast free acid added to F6H8 at 0.25% to 10% (w/w); forms a suspension
Excerpt: The lifitegrast is in soluble in F6H8 and forms a suspension. When left standing the lifitegrast settles to form a sediment.

In the case of CCCCCCCCC(F)(F)C(F)(F)C(F)(F)C(F)(F)C(F)(F)C(F)(F)F [F6H8, 1-perfluorohexyloctane], the “Acceptance criteria of the antimicrobial effectiveness assay” value [1] is reported as “meets the acceptance criteria”, the Log reduction (E. coli; 0 hour) is reported as 1.0 and the Count (E. coli; 0 hour) is reported as 2 × 10^4. It also gave a Log reduction (E. coli; 6 hours) of 5.3, a Count (E. coli; 6 hours) of 0 and a Log reduction (E. coli; 24 hours) of 5.3. It also gave a Count (E. coli; 24 hours) of 0, a Log reduction (E. coli; 28 days) of 5.3 and a Count (E. coli; 28 days) of 0. For the same molecule, the Log reduction (C. albicans; 0 hour) was 2.3, the Count (C. albicans; 0 hour) was 5 × 10^3 and the Log reduction (C. albicans; 7 days) was 6.0. It also gave a Count (C. albicans; 7 days) of 0, a Log reduction (C. albicans; 28 days) of 6.0 and a Count (C. albicans; 28 days) of 0. The Log reduction (P. aeruginosa; 0 hour) was 1.2, the Count (P. aeruginosa; 0 hour) was 5 × 10^4 and the Log reduction (P. aeruginosa; 6 hours) was 3.3. The Count (P. aeruginosa; 6 hours) was 4 × 10^2, the Log reduction (P. aeruginosa; 24 hours) was 5.0 and the Count (P. aeruginosa; 24 hours) was 8. It also gave a Log reduction (P. aeruginosa; 28 days) of 5.9, a Count (P. aeruginosa; 28 days) of 0 and a Log reduction (A. brasiliensis; 0 hour) of 0.9. For the same molecule, the Count (A. brasiliensis; 0 hour) was 8 × 10^4, the Log reduction (A. brasiliensis; 7 days) was 2.8 and the Count (A. brasiliensis; 7 days) was 1 × 10^3. The Log reduction (A. brasiliensis; 28 days) was 2.5, the Count (A. brasiliensis; 28 days) was 2 × 10^3 and the Log reduction (S. aureus; 0 hour) was 4.1. The Log reduction (S. aureus; 6 hours) was 5.3, the Count (S. aureus; 6 hours) was 0 and the Log reduction (S. aureus; 24 hours) was 5.3. For the same molecule, the Count (S. aureus; 24 hours) was 0, the Log reduction (S. aureus; 28 days) was 5.3 and the Count (S. aureus; 28 days) was 0.

In the case of CS(=O)(=O)c1cccc(C[C@H](NC(=O)c2c(Cl)cc3c(c2Cl)CCN(C(=O)c2ccc4ccoc4c2)C3)C(=O)O)c1 [lifitegrast], the “Solubility in F6H8” value [2] is reported as “in soluble”.
